Source: patent US20120115845A1, “THERAPEUTIC AGENTS” (priority 2007, published 2012)

Key:
human GHS receptor [1] = target: T1, human GHS receptor (Homo sapiens, UniProt Q92847); assay: Ghrelin IP1 agonist assay (IP1 HTRF); format: cell-based; set-up: expressed in transfected cells; host or cells: HEK293s; details: for Emax: 2 h, agonist effect as % maximal effect of GHRP-6 (5 μM), read-out: h IP1 ag %; for EC50: HEK293s cells stably expressing human GHS receptor, 2 hours at 37° C., read-out: h IP1 ag EC50
T1 sequence (Q92847 whole entry): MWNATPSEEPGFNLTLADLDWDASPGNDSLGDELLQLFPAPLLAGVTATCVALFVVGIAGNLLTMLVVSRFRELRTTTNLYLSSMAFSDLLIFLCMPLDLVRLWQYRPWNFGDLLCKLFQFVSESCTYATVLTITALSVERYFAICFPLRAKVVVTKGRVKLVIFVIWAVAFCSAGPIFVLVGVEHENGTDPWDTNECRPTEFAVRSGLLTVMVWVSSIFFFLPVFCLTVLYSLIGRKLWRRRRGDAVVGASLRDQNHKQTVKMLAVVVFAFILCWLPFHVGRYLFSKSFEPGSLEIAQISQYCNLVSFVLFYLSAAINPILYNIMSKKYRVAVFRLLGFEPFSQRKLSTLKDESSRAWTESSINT
Method in brief: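 Cells: HEK293s stably expressing human GHS receptor, in stimulation buffer containing 0.02% fatty acid free BSA.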

human GHS receptor [2] = target: T1, human GHS receptor; assay: h bind IC50 (binding assay, Table 1); details: human receptor; Table 1

Emax (human GHS receptor [1]) | EC50 (human GHS receptor [1]) | IC50 (human GHS receptor [2]) | Compound
0.18% | ≥ 25000 nM | 0.2 nM | CN1CCN(CCCS(=O)(=O)c2ccc3nc(NC(=O)NC(=O)c4cc(-n5cccc5)ccc4Cl)sc3c2)CC1 [Example 85, 2-Chloro-N-(6-(3-(4-methylpiperazin-1-yl)propylsulfonyl)benzothiazol-2-ylcarbamoyl)-5-(1H-pyrrol-1-yl)benzamide]
64.6% | 54 nM | 36.8 nM | CN(C)C1CC(S(=O)(=O)c2ccc3nc(NC(=O)NC(=O)c4ccccc4Cl)sc3c2)C1 (stereo not drawn) [Example 216, 2-Chloro-N-[[6-(3-dimethylaminocyclobutyl)sulfonylbenzothiazol-2-yl]carbamoyl]benzamide]
45.1% | 400 nM | 36 nM | CS(=O)(=O)c1ccc2nc(NC(=O)NC(=O)c3ccc(-n4cccn4)cc3Cl)sc2c1 [Example 116, 2-Chloro-N-[(6-methylsulfonylbenzothiazol-2-yl)carbamoyl]-4-pyrazol-1-yl-benzamide]
15.5% | 75.2 nM | 128 nM | Cc1nc(CS(=O)(=O)c2ccc3nc(NC(=O)NC(=O)c4ccccc4Cl)sc3c2)cs1 [Example 191, 2-Chloro-N-[[6-[(2-methyl-1,3-thiazol-4-yl)methylsulfonyl]benzothiazol-2-yl]carbamoyl]benzamide]
47.6% | 166 nM | 321 nM | O=C(NC(=O)c1ccccc1Cl)Nc1nc2ccc(S(=O)(=O)CCNCCO)cc2s1 [Example 14, 2-Chloro-N-[[6-[2-(2-hydroxyethylamino)ethylsulfonyl]benzothiazol-2-yl]carbamoyl]benzamide]
0% | ≥ 20000 nM | 34.3 nM | COc1cc(Cl)c(C(=O)NC(=O)Nc2nc3ccc(S(=O)(=O)C4CCN(C(=O)OC(C)(C)C)CC4)cc3s2)cc1-n1cccn1 [Example 262, tert-butyl4-(2-(3-(2-chloro-4-methoxy-5-(1H-pyrazol-1-yl)benzoyl)ureido)benzo[d]thiazol-6-ylsulfonyl) piperidine-1-carboxylate]
27.8% | 224 nM | 60.3 nM | CC(C)NCC(C)(C)S(=O)(=O)c1ccc2nc(NC(=O)NC(=O)c3ccccc3Cl)sc2c1 [Example 225, 2-chloro-N-(6-(1-(isopropylamino)-2-methylpropan-2-ylsulfonyl)benzo[d]thiazol-2-ylcarbamoyl)benzamide]
0% | > 25000 nM | 162 nM | CS(=O)(=O)c1ccc2nc(NC(=O)NC(=O)c3cc(-c4ncccn4)ccc3Cl)sc2c1 [Example 57, 2-Chloro-N-(6-(methylsulfonyl)benzothiazol-2-ylcarbamoyl)-5-(pyrimidin-2-yl)benzamide]
55.2% | 2.25 nM | 1.2 nM | CN1CCN(CCCS(=O)(=O)c2ccc3nc(NC(=O)NC(=O)c4ccccc4Cl)sc3c2)CC1 [Example 155, 2-Chloro-N-[[6-[3-(4-methylpiperazin-1-yl)propylsulfonyl]benzothiazol-2-yl]carbamoyl]benzamide]
17.7% | 52.9 nM | 830 nM | O=C(NC(=O)c1ccccc1Cl)Nc1nc2ccc(S(=O)(=O)CCCCl)cc2s1 [Example 148, 2-Chloro-N-[[6-(3-chloropropylsulfonyl)benzothiazol-2-yl]carbamoyl]benzamide]
12.9% | 12.5 nM | 238 nM | CC(C)(C)OC(=O)NC1CC(S(=O)(=O)c2ccc3nc(NC(=O)NC(=O)c4ccccc4Cl)sc3c2)C1 (stereo not drawn) [Example 213, tert-Butyl N-[3-[2-[(2-chlorobenzoyl)carbamoylamino]benzothiazol-6-yl]sulfonylcyclobutyl]carbamate]
29.7% | 4.54 nM | 0.9 nM | CN(C)C1CCN(CCCS(=O)(=O)c2ccc3nc(NC(=O)NC(=O)c4ccccc4Cl)sc3c2)CC1 [Example 201, 2-Chloro-N-[[6-[3-(4-dimethylamino-1-piperidyl)propylsulfonyl]benzothiazol-2-yl]carbamoyl]benzamide]
1% | 27.7 nM | 18.7 nM | CC(C)(C)OC(=O)N1CC(Oc2ccc(Cl)c(C(=O)NC(=O)Nc3nc4ccc(S(C)(=O)=O)cc4s3)c2)C1 [Example 252, tert-buty 3-(4-chloro-3-(6-(methylsulfonyl)benzo[d]thiazol-2-ylcarbamoyl-carbamoyl)phenoxy)azetidine-1-carboxylate]
0.911% | ≥ 25000 nM | 1.7 nM | O=C(NC(=O)c1cc(-n2cccc2)ccc1Cl)Nc1nc2ccc(S(=O)(=O)[C@H]3CCNC3)cc2s1 [Example 77, 2-Chloro-N-[[6-[(3S)-pyrrolidin-3-yl]sulfonylbenzothiazol-2-yl]carbamoyl]-5-pyrrol-1-yl-benzamide]
0% | ≥ 20000 nM | 452 nM | CN(C)c1cccnc1-c1ccc(Cl)c(C(=O)NC(=O)Nc2nc3ccc(S(C)(=O)=O)cc3s2)c1 [Example 247]
10.8% | 1290 nM | 1660 nM | CS(=O)(=O)c1ccc(C(=O)NC(=O)Nc2nc3ccc(S(C)(=O)=O)cc3s2)c(Cl)c1 [Example 113, 2-Chloro-4-methylsulfonyl-N-[(6-methylsulfonylbenzothiazol-2-yl)carbamoyl]benzamide]
26.1% | 623 nM | 428 nM | CN(CCS(=O)(=O)c1ccc2nc(NC(=O)NC(=O)c3ccccc3Cl)sc2c1)CC1CCCO1 (stereo not drawn) [Example 26, 2-Chloro-N-[[6-[2-(methyl-(oxolan-2-ylmethyl)amino)ethylsulfonyl]benzothiazol-2-yl]carbamoyl]benzamide]
0% | ≥ 20000 nM | 5.69 nM | CN1CCC(S(=O)(=O)c2ccc3nc(NC(=O)NC(=O)c4cc(-n5cccn5)c(F)cc4Cl)sc3c2)CC1 [Example 254, 2-chloro-4-fluoro-N-(6-(1-methylpiperidin-4-ylsulfonyl)benzo [d]thiazol-2-ylcarbamoyl)-5-(1H-pyrazol-1-yl)benzamide]
23.8% | 39.2 nM | 251 nM | O=C(NC(=O)c1ccccc1Cl)Nc1nc2ccc(S(=O)(=O)CCN3CCCOCC3)cc2s1 [Example 30, 2-Chloro-N-[[6-[2-(1,4-oxazepan-4-yl)ethylsulfonyl]benzothiazol-2-yl]carbamoyl]benzamide]
1.52% | 9230 nM | 5.78 nM | Cc1cc(Cl)c(C(=O)NC(=O)Nc2nc3ccc(S(=O)(=O)C4CCN(C)CC4)cc3s2)cc1-n1cccn1 [Example 260, 2-chloro-4-methyl-N-(6-(1-methylpiperidin-4-ylsulfonyl)benzo [d]thiazol-2-ylcarbamoyl)-5-(1H-pyrazol-1-yl)benzamide]
0.0527% | ≥ 25000 nM | 10.1 nM | CS(=O)(=O)c1ccc2nc(NC(=O)NC(=O)c3cc(N4CCOCC4)ccc3Cl)sc2c1 [Example 54, 2-Chloro-N-(6-(methylsulfonyl)benzothiazol-2-ylcarbamoyl)-5-morpholin-4-yl benzamide]
39.9% | 36.4 nM | 69.6 nM | O=C(NC(=O)c1ccccc1Cl)Nc1nc2ccc(S(=O)(=O)CCN3CCNCC3)cc2s1 [Example 8, 2-Chloro-N-[[6-(2-piperazin-1-ylethylsulfonyl)benzothiazol-2-yl]carbamoyl]benzamide]
